Among the data in the Deep4Chem optical property database are absorption maximum values, retold here.

The data set is described as follows: solvent given as SMILES.

Consider `c1ccc2c(c1)ccc1ccc3ccc4ccccc4c3c12`, for which the absorption maximum (in ClC(Cl)Cl) is reported as 393 nm.

Compound `COc1ccc(C(=Cc2ccc(C=O)cc2)c2ccc(OC)cc2)cc1` displayed an absorption maximum (in C1CCOC1) of 356 nm.

In the case of `c1ccc(-c2nc(-c3ccccn3)sc2N(c2ccccc2)c2ccccc2)cc1`, the absorption maximum (in ClC(Cl)Cl) turned out to be 388 nm.

For `c1cnc(-c2c3ccccc3c(-c3cncnc3)c3ccccc23)nc1`, the absorption maximum (in CCO) was determined as 391 nm and the absorption maximum (in ClCCl) was 394 nm.

Under “in ClCCl”, `CC(C)(C)c1cc2ccc3c(N(c4ccc(F)cc4)c4ccc(F)cc4)cc(N(c4ccc(F)cc4)c4ccc(F)cc4)c4ccc(c1)c2c34` had an absorption maximum of 414 nm.

As for `FC(F)(F)c1ccc2oc3nc4oc5ccc(-n6c7ccccc7c7ccccc76)cc5c4cc3c2c1`, the absorption maximum (in ClC(Cl)Cl) is reported as 342 nm.

On to `CCCCOc1c(-c2c(OCCCC)c3oc4cc5ccccc5cc4c3c3ccccc23)c2ccccc2c2c1oc1cc3ccccc3cc12`, for which, for the setting “in C1CCOC1”, the absorption maximum turned out to be 366 nm.

For the compound `CCC1=C(C)C2=C(c3cc(C(=O)Cl)cc(C4=C5C(C)=C(CC)C(C)=[N+]5[B-](F)(F)n5c(C)c(CC)c(C)c54)c3)c3c(C)c(CC)c(C)n3[B-](F)(F)[N+]2=C1C`, the absorption maximum by setting is: (in C1CCOC1) 530 nm; (in CC#N) 527 nm; (in CN(C)C=O) 535 nm; (in Cc1ccccc1) 534 nm; (in ClC(Cl)Cl) 534 nm.

For the setting “in C1CCOC1”, `CC(=O)c1ccc(-c2cnc3nn4ccccc4c3c2)cc1` showed an absorption maximum of 386 nm.

For the compound `CCOC(=O)/C(C#N)=C\c1cn(-c2ccccc2)nc1-c1ccccc1`, the absorption maximum was determined as 347 nm (in C1CCOC1); 348 nm (in C1COCCO1); 347 nm (in CCO); 346 nm (in CCOC(C)=O); 347 nm (in CN(C)C=O); 344 nm (in CO). In addition, the absorption maximum runs as follows: (in CS(C)=O) 349 nm; (in Cc1ccccc1) 353 nm; (in ClC(Cl)Cl) 351 nm; (in ClCCl) 348 nm.

For `COc1ccc(C#Cc2c3ccccc3c3n2[B-](F)(F)[N+]2=C(C)C=C(C)C2=C3)cc1`, the absorption maximum by setting is: (in CCCCCC) 611 nm; (in CCCCCCCCO) 615 nm; (in CCOC(C)=O) 610 nm; (in CN(C)C=O) 615 nm; (in ClCCl) 616 nm.

Turning to `CN1CCN(c2ccc3c4c(cccc24)C(=O)c2ccccc2-3)CC1`, the absorption maximum worked out at 428.2 nm (in C1CCCCC1); 446 nm (in C1CCOC1); 442.8 nm (in C1COCCO1); 459 nm (in CC1COC(=O)O1); 453.8 nm (in CC#N); 449.6 nm (in CC(C)=O). Besides, the absorption maximum runs as follows: (in CCCCCCCCO) 451 nm; (in CCCCCO) 456.4 nm; (in CCCCO) 454.6 nm; (in CCCO) 455.4 nm; (in CCO) 455.4 nm; (in CCOC(C)=O) 443 nm. The absorption maximum is, setting by setting: (in CN(C)C=O) 454.4 nm; (in CO) 456.4 nm; (in CS(C)=O) 460.8 nm; (in Cc1ccccc1) 443.8 nm; (in ClC(Cl)Cl) 455.4 nm.

The compound `CN(C)c1ccc(-c2nc3cc(C(F)(F)F)ccc3n2-c2ccccc2)cc1` gave an absorption maximum (in CC#N) of 332 nm.

In turn, `CCCCCCCCCCCCOc1cc(C(=O)Nc2ccc(-c3ccc4c(c3)C(=O)c3cc(-c5ccc(NC(=O)c6cc(OCCCCCCCCCCCC)c(OCCCCCCCCCCCC)c(OCCCCCCCCCCCC)c6)cc5)ccc3-4)cc2)cc(OCCCCCCCCCCCC)c1OCCCCCCCCCCCC` yielded an absorption maximum (in C1CCOC1) of 447 nm.

Regarding `O=C([O-])c1cc(N2C(=O)C=CC2=O)ccc1-c1c2cc(F)c(=O)cc-2oc2cc([O-])c(F)cc12`, the absorption maximum (in O) is given as 493 nm.

Where the note is “in C1CCOC1”, `O=P(c1c2ccccc2cc2ccccc12)(c1c2ccccc2cc2ccccc12)c1c2ccccc2cc2ccccc12` yielded an absorption maximum of 411 nm.

Regarding `C[n+]1ccnc(/C=C/c2ccc(N(c3ccccc3)c3ccc(/C=C/c4c[n+](C)ccn4)cc3)cc2)c1`, the absorption maximum by setting is: (in CS(C)=O) 440 nm; (in O) 485 nm; (in OCC(O)CO) 500 nm.

For the setting “in ClCCl”, `c1ccc(-c2cccc3ncc(-c4ccccc4)n23)cc1` registered an absorption maximum of 337 nm.

With `CCN(CC)c1ccc2nc3c4ccccc4c(=O)cc-3oc2c1`, the absorption maximum was found to be 519 nm (in C1COCCO1); 535 nm (in CC#N); 533 nm (in CC(C)=O); 508 nm (in CCCCCC); 549 nm (in CCO); 524 nm (in CCOC(C)=O). Also, the absorption maximum came out at 553 nm (in CO), 552 nm (in CS(C)=O), 524 nm (in Cc1ccccc1) and 539 nm (in ClCCl).

`C[Si](C)(C)c1sc([Si](C)(C)C)c2c1sc1c3sc4c(sc5c4sc4c([Si](C)(C)C)sc([Si](C)(C)C)c45)c3sc12`: under “in ClC(Cl)Cl”, the absorption maximum was 405 nm.

In turn, `F[B-]1(F)n2c(Cl)c(Cl)c(Br)c2C(Cl)=C2C(Br)=C(Cl)C(Cl)=[N+]21` displayed an absorption maximum (in ClCCl) of 546 nm.

`CC(C)(C)c1ccc2c(c1)c1cc(C(C)(C)C)ccc1n2-c1cccc(-c2nc(-c3cccc(-n4c5ccc(C(C)(C)C)cc5c5cc(C(C)(C)C)ccc54)c3)nc(-c3cccc(P(=O)(c4ccccc4)c4ccccc4)c3)n2)c1` registered an absorption maximum (in C1CCOC1) of 344.36 nm; an absorption maximum (in CC#N) of 344.36 nm; an absorption maximum (in CC(C)=O) of 344.36 nm; an absorption maximum (in CN(C)C=O) of 344.36 nm; an absorption maximum (in Cc1ccccc1) of 344.36 nm; an absorption maximum (in ClC(Cl)Cl) of 344.36 nm. The absorption maximum (in ClCCl) was 344.36 nm.

`COc1ccc(/C2=C3N=C(C(c4ccccc4)=C/3c3ccccc3)/C(c3ccc(OC)cc3)=c3\[nH]/c(c(-c4ccccc4)c3-c3ccccc3)=C(/c3ccc(OC)cc3)C3=N/C(=C(/c4ccc(OC)cc4)c4[nH]c2c(-c2ccccc2)c4-c2ccccc2)C(c2ccccc2)=C3c2ccccc2)cc1` registered an absorption maximum (in ClCCl) of 731 nm.

For the setting “in ClC(Cl)Cl”, `Cc1ccc(C2CC(=O)Oc3c2c2nc4ccc(C)cc4nc2c2ccccc32)cc1` (stereo unspecified) showed an absorption maximum of 411 nm.

With `Cc1ccc(-c2ccc(/C=C/c3ccccc3)cn2)nc1`, the absorption maximum (in CC#N) is reported as 335 nm.

As to `CC(C)(C)c1ccc2c(c1)c1cc(C(C)(C)C)ccc1n2-c1ccc(C#Cc2ccc(C=C(C#N)C#N)cc2)cc1`, the absorption maximum by setting is: (in CC#N) 346 nm; (in CCCCC) 345 nm; (in Cc1ccccc1) 348 nm; (in ClCCl) 410 nm.

Turning to `CCN(CC)c1ccc2cc(/C=C/C(=O)/C=C(O)/C=C/c3cc4ccc(N(CC)CC)cc4oc3=O)c(=O)oc2c1`, the absorption maximum by setting is: (in C1CCOC1) 518 nm; (in C1COCCO1) 514 nm; (in CC#N) 521 nm; (in CC(C)=O) 519 nm; (in CCOC(C)=O) 514 nm; (in CN(C)C=O) 527 nm. Further, the absorption maximum is, setting by setting: (in CS(C)=O) 540 nm; (in Cc1ccccc1) 518 nm; (in ClC(Cl)Cl) 520 nm; (in ClCCl) 523 nm.

In turn, `CC(C)(C)NC(=O)c1cc2ccc3cccc4ccc(c1C(=O)NC(C)(C)C)c2c34` displayed an absorption maximum (in ClC(Cl)Cl) of 385 nm.

Compound `COc1ccc(C2=C3C=CC(=[N+](C)C)C=C3[Si](C)(C)c3cc(N(C)C)ccc32)c(OC)c1` returned an absorption maximum (in O) of 649 nm.

In the case of `CCOC(=O)/N=c1/oc2cc(N(CC)CC)ccc2cc1C#N`, for the setting “in ClCCl”, the absorption maximum is given as 440 nm.

As for `Cn1c2ccccc2[c+](-c2ccccc2)c2cc([N+](=O)[O-])ccc21`, the absorption maximum is, setting by setting: (in CC#N) 428.3 nm; (in CCO) 426.3 nm; (in CO) 432.1 nm; (in CS(C)=O) 434.3 nm.

Regarding `CN(c1ccccc1)c1ccc(N(c2ccccc2)c2ccc3ccc4c(N(c5ccccc5)c5ccc(N(C)c6ccccc6)cc5)ccc5ccc2c3c54)cc1`, under “in ClCCl”, the absorption maximum was found to be 435 nm.

Where the note is “in ClC(Cl)Cl”, `CCn1c2ccccc2oc2c(C#N)c3oc4ccccc4oc3c(C#N)c21` displayed an absorption maximum of 470 nm.

For the compound `CC1=CC(C)=[N+]2C1=C(c1ccc3cccnc3n1)c1c(C)cc(C)n1[B-]2(F)F`, the absorption maximum was 501 nm (in CC#N); 506 nm (in CCCCCC); 503 nm (in CO); 509 nm (in ClC(Cl)Cl); 506 nm (in ClCCl).

For the setting “in C1CCOC1”, `c1ccc(C2=C(c3ccccc3)[Si](c3ccccc3)(c3ccccc3)c3ccccc32)cc1` returned an absorption maximum of 330 nm.

`Cc1cc(-c2ccc(-c3ccccc3)cc2)cc(C)[o+]1` showed an absorption maximum (in ClCCl) of 402 nm.

In turn, `COc1ccc2cc(/C=C/c3nc(/C=C/c4ccc(N(C)C)cc4)cc(/C=C/c4ccc(N(C)C)cc4)n3)ccc2c1` showed an absorption maximum (in ClCCl) of 418 nm.

The compound `Cc1cc(=O)oc2cc3c(cc12)c1c2ccccc2c2ccccc2c1c1c2ccccc2c2ccccc2c31` registered an absorption maximum (in ClC(Cl)Cl) of 386 nm.

For the compound `c1ccc2c(c1)Oc1ccccc1C21c2cc(-c3ccc4ccc5cccc6ccc3c4c56)ccc2-c2ccc(-c3ccc4ccc5cccc6ccc3c4c56)cc21`, the absorption maximum (in ClC(Cl)Cl) was 364 nm.

`CC(C)(C)OC(=O)NC(Cc1ccccc1)C(=O)OCc1ccc2c3cccc4cccc(c5cccc1c52)c43` (stereo unspecified) gave an absorption maximum (in CCO) of 440 nm.

`Cc1ccc(-n2c(-c3ccc(C(F)(F)F)cc3)nc(-c3ccccc3O)c2-c2ccccc2O)cc1`: the absorption maximum runs as follows: (in C1CCOC1) 314 nm; (in CC(C)O) 309 nm; (in CCCCCC) 314 nm; (in CO) 309 nm; (in CS(C)=O) 313 nm; (in ClCCl) 311 nm.
